{"source": "patent US20220177587A1", "about": "“METHODS AND USES OF VARIANT CD80 FUSION PROTEINS AND RELATED CONSTRUCTS” (Alpine Immune Sciences, Inc., priority 2018, published 2022)", "key": {"Pan T cells": {"test_system": "Pan T cells", "test": "Primary T cell stimulation assay with K562/OKT3 +/- PD-L1 (IL-2, IFN-gamma, proliferation)", "type": "cell-based, human", "parameters": "IL-2 release, K562/OKT3 (No PD-L1), CD80-IgV Fc (effector), 1 nM / IL-2 release, K562/OKT3 (No PD-L1), CD80-IgV Fc (effector), 10 nM / IL-2 release, K562/OKT3 (No PD-L1), CD80-IgV Fc (effector), 100 nM / IL-2 release, K562/OKT3/PD-L1, CD80-IgV Fc (inert), 1 nM / IL-2 release, K562/OKT3/PD-L1, CD80-IgV Fc (inert), 10 nM / IL-2 release, K562/OKT3/PD-L1, CD80-IgV Fc (inert), 100 nM: unit not given here", "details": "72 hr; for IL-2 release, K562/OKT3 (No PD-L1), CD80-IgV Fc (effector), 1 nM / IL-2 release, K562/OKT3 (No PD-L1), CD80-IgV Fc (effector), 10 nM / IL-2 release, K562/OKT3 (No PD-L1), CD80-IgV Fc (effector), 100 nM: Pan T cells + K562/OKT3 (no PD-L1), effector Fc format (controls as labelled)", "protocol": "IFN-gamma, IL-2 and proliferation were determined after 72 hr. incubation."}, "allogeneic CD4+ T cells": {"test_system": "allogeneic CD4+ T cells", "test": "Mixed Lymphocyte Reaction (MLR), IFN-gamma", "type": "cell-based, human", "details": "Table E33; culture supernatant", "protocol": "Soluble rCD80.Fc bioactivity was tested in a human Mixed Lymphocyte Reaction (MLR). Human primary dendritic cells (DC) were generated by culturing monocytes isolated from PBMC (BenTech Bio, USA) in vitro for 7 days with 500U/ml rIL-4 (R&D Systems, USA) and 250 U/ml rGM-CSF (R&D Systems, USA) in Ex-Vivo 15 media (Lonza, Switzerland). 10,000 matured DC and 100,000 purified allogeneic CD4+ T cells (BenTech Bio, USA) were co-cultured with variant CD80 Fc fusion proteins and controls in 96 well round bottom plates in 200 μl final volume of Ex-Vivo 15 media. On day 5, IFN-gamma secretion in culture supernatants was analyzed using the Human IFN-gamma Duoset ELISA kit (R&D Systems, USA). Optical density was measured by VMax ELISA Microplate Reader (Molecular Devices, USA) and quantitated against titrated rIFN-gamma standard included in the IFN-gamma Duo-set kit (R&D Systems, USA)."}, "human pan T cells": {"test_system": "human pan T cells", "test": "Anti-CD3 coimmobilization assay, IFN-gamma", "type": "cell-based", "details": "Table E33; culture supernatant, 3 days", "protocol": "Costimulatory bioactivity of CD80 fusion variants was determined in anti-CD3 coimmobilization assays. 1 nM or 4 nM mouse anti-human CD3 (OKT3, Biolegends, USA) was diluted in PBS with 1 nM to 80 nM rCD80.Fc variant proteins. This mixture was added to tissue culture treated flat bottom 96-well plates (Corning, USA) overnight to facilitate adherence of the stimulatory proteins to the wells of the plate. The next day, unbound protein was washed off the plates and 100,000 purified human pan T cells (BenTech Bio, US) or human T cell clone BC3 (Astarte Biologics, USA) were added to each well in a final volume of 200 μl of Ex-Vivo 15 media (Lonza, Switzerland). Cells were cultured 3 days before harvesting culture supernatants and measuring human IFN-gamma levels with Duoset ELISA kit (R&D Systems, USA) as described above."}, "[1]": {"test_system": "primary human pan T cells", "test": "Cytokine production following PD-L1-dependent costimulation", "type": "cell-based", "details": "mitomycin-c treated K562/OKT3/PDL1 aAPC; FIG. 6"}, "MC38 hPD-L1 tumor cells": {"test_system": "MC38 hPD-L1 tumor cells", "test": "MC38 hPD-L1 tumor model in C57BL/6 mice", "type": "in vivo, mouse", "protocol": "Mouse MC38 tumor cells were stably transfected with human PD-L1 (MC38 hPD-L1) and implanted subcutaneously into C57BU6 mice. […] Tumor volume was tracked over time.\n70 female C57CL/6 mice, containing similar tumor volumes of approximately 50-51 mm^3, following implantation of MC38 hPD-L1 tumor cells, were staged and divided into 5 treatment groups containing 14 mice each. […] Tumor volumes were measured on days 7, 10, and 12. On day 13, 5 animals were sacrificed for analysis as described in the sections below. Tumor measurements resumed for the remaining 9 mice for each group on days 17, 20 and 27. On days 26, 28, and 31, the animals in Group 1 (Fc isotype control) received an intratumoral injection of 100 μg E35D/M47L CD80-IgV-Fc.\n95 female C57BU6 mice were implanted with MC38 hPD-L1 tumor cells. The tumors were staged on Day 7, and 77 mice with similar tumor volumes of approximately 60 mm^3 were divided into 7 treatment groups containing 11 mice each.\nOn day 49, tumor-free mice, from Groups 3, 4, 6, and 7, and 2 naïve C57CL/6 mice were re-challenged with an additional injection of hPD-L1 MC38 cells. Tumor volumes were measured on days 56, 59, and 63. The results are depicted in FIG. 13. […] At day 59, 8/8 mice from Group 3, 1/2 mice from Group 4, 1/1 mouse from Group 6, and 2/2 mice from Group 7 were tumor-free, and by day 63, all mice in Group 3, Group 4, Group 6, and Group 7 were tumor-free.\n75 animals were staged into 3 treatment groups 7 days after implantation with hPD-L1 MC38 tumor cells. […] Tumor volumes were measured every 3-4 days, from Day 11 until Day 35. 3 days after the 1st dose, 2nd dose and 3rd dose, 4 mice from each group were sacrificed for tumor and LN analyses, leaving 13 mice for tumor volume measurements throughout the study period."}, "[2]": {"test_system": "huPD-L1 transduced MC38 tumor cells", "test": "In vitro cytotoxicity to huPD-L1 transduced MC38 tumor cells", "type": "cell-based, mouse", "details": "100 nM or 10 nM; 72 hours; human pan T cells 1:5; FIG. 17", "protocol": "This Example describes the assessment of in vitro cytotoxicity of huPD-L1 transduced MC38 tumor cells. MC38 tumor cells, non-transduced or transduced with huPD-L1, were treated with Mitomycin-C and plated with human pan T cells labelled with CFSE at a 1:5 ratio. […] As a control, an exemplary anti-PD-1 antibody nivolumab or an Fc (inert) only control also were assessed. Cells were then harvested and stained with 7-AAD viability dye. After acquiring samples on a flow cytometer, the percentage of dead cells was calculated using Flowjo analysis by gating on 7-AAD+ cells in the CFSE− gate."}, "[3]": {"details": "3 injections of 100 μg on Days 8, 10 and 12"}, "[4]": {"details": "re-challenged on day 49 with hPD-L1 MC38 cells"}}}
{"substance": "WT CD80 ECD-Fc (effector)", "values": [{"measurement": "IL-2 release, K562/OKT3 (No PD-L1), CD80-IgV Fc (effector), 1 nM", "setting": "Pan T cells; 1 nM", "result": 11434}, {"measurement": "IL-2 release, K562/OKT3 (No PD-L1), CD80-IgV Fc (effector), 10 nM", "setting": "Pan T cells; 10 nM", "result": 20185}, {"measurement": "IL-2 release, K562/OKT3 (No PD-L1), CD80-IgV Fc (effector), 100 nM", "setting": "Pan T cells; 100 nM", "result": 23118}, {"measurement": "IL-2 release, K562/OKT3/PD-L1, CD80-IgV Fc (inert), 1 nM", "setting": "Pan T cells; Pan T cells + K562/OKT3/PD-L1, inert Fc format (controls as labelled), 1 nM", "result": 507}, {"measurement": "IL-2 release, K562/OKT3/PD-L1, CD80-IgV Fc (inert), 10 nM", "setting": "Pan T cells; Pan T cells + K562/OKT3/PD-L1, inert Fc format (controls as labelled), 10 nM", "result": 3114}, {"measurement": "IL-2 release, K562/OKT3/PD-L1, CD80-IgV Fc (inert), 100 nM", "setting": "Pan T cells; Pan T cells + K562/OKT3/PD-L1, inert Fc format (controls as labelled), 100 nM", "result": 8393}]}
{"substance": "WT CD80 IgV-Fc (effector)", "values": [{"measurement": "IL-2 release, K562/OKT3 (No PD-L1), CD80-IgV Fc (effector), 1 nM", "setting": "Pan T cells; 1 nM", "result": 7167}, {"measurement": "IL-2 release, K562/OKT3 (No PD-L1), CD80-IgV Fc (effector), 10 nM", "setting": "Pan T cells; 10 nM", "result": 7123}, {"measurement": "IL-2 release, K562/OKT3 (No PD-L1), CD80-IgV Fc (effector), 100 nM", "setting": "Pan T cells; 100 nM", "result": 6203}]}
{"substance": "WTCD80", "values": [{"measurement": "MLR IFN-gamma levels", "setting": "allogeneic CD4+ T cells", "result": 19211, "unit": "pg/mL"}, {"measurement": "Coimmobilization with anti-CD3 IFN-gamma", "setting": "human pan T cells", "result": 509, "unit": "pg/mL"}]}
{"substance": "durvalumab [reference compound]", "values": [{"measurement": "IL-2 secretion in culture supernatants", "setting": "[1]", "result": "IL-2 production was not observed"}, {"measurement": "mice with no detectable tumors (tumor-free) upon completion of the study", "setting": "MC38 hPD-L1 tumor cells; 100 μg on days 7, 9 and 11, 11 mice per group", "result": 2, "unit": "mice"}, {"measurement": "tumor-free mice at day 35", "setting": "MC38 hPD-L1 tumor cells; [3]", "result": "3/13"}, {"measurement": "tumor-free mice on Day 18", "setting": "MC38 hPD-L1 tumor cells; [3]", "result": "3/13"}, {"measurement": "tumor-free mice after re-challenge, day 59", "setting": "MC38 hPD-L1 tumor cells; [4]", "result": "2/2"}, {"measurement": "tumor-free mice after re-challenge, day 63", "setting": "MC38 hPD-L1 tumor cells; [4]", "result": "tumor-free"}]}
{"substance": "nivolumab [reference compound]", "values": [{"measurement": "cytotoxicity (percentage of dead 7-AAD+ tumor cells)", "setting": "[2]", "result": "cytotoxic activity was not observed"}]}
